The record followed here is US20230265151A1, “GIP/GLP1 CO-AGONIST COMPOUNDS” (priority 2020, published 2023).

Holding throughout (type): cell-based
One assay concerns the target T1, hGIPR (Homo sapiens, UniProt P48546).
T1 construct: expressed in transfected cells
T1 sequence (P48546 22-466): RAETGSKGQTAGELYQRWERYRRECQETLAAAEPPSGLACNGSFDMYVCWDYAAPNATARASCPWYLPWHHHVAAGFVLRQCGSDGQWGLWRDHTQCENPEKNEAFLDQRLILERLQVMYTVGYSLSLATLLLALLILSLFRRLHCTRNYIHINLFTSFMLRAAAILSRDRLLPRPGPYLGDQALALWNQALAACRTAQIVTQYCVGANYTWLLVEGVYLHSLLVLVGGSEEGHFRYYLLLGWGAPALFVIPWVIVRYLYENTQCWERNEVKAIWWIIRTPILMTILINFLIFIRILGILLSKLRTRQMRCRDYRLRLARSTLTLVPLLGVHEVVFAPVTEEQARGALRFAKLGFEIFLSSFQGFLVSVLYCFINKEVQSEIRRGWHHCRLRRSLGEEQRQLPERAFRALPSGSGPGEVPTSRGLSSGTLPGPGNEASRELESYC
Description: Functional cAMP formation (HTRF) in HEK-293 clonal cells expressing hGIPR, 0.1% bovine casein, without or with 1.0% human serum albumin. As to conditions: for EC50: geometric mean. The procedure, abridged: (§1)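 Cells were stimulated with peptide for 30 min at 37° C, then lysed in buffer carrying cAMP-d2 and anti-cAMP Eu3+-cryptate for a competitive HTRF read after at least 60 min at room temperature. The 665/620 nm ratio was converted to nM cAMP against a standard curve.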
Background: Changes in cAMP serve as a functional read-out for many G protein-coupled receptors.

The target of another assay is T2, hGCGR (Homo sapiens, UniProt P47871).
T2 construct: expressed in transfected cells
Nature of the assay: Functional cAMP formation (HTRF) in HEK-293 clonal cells expressing hGCGR, 0.1% bovine casein, without or with 1.0% human serum albumin. The procedure, abridged:
as §1

The next assay concerns the target hGLP-1R (Homo sapiens, UniProt P43220). Description: Functional cAMP formation (HTRF) in HEK-293 clonal cells expressing hGLP-1R, 0.1% bovine casein, without or with 1.0% human serum albumin. To be noted: for EC50: 37° C., geometric mean. Details: expressed in transfected cells. The procedure, abridged:
as §1

The structures appear in SMILES notation. Where two headings read alike, the source gives them in different places.

The Emax is the greatest response seen or fitted, relative to the assay's reference. Usually EC50 stands for the concentration at which the effect is half-maximal.

T2 sequence (P47871 26-477): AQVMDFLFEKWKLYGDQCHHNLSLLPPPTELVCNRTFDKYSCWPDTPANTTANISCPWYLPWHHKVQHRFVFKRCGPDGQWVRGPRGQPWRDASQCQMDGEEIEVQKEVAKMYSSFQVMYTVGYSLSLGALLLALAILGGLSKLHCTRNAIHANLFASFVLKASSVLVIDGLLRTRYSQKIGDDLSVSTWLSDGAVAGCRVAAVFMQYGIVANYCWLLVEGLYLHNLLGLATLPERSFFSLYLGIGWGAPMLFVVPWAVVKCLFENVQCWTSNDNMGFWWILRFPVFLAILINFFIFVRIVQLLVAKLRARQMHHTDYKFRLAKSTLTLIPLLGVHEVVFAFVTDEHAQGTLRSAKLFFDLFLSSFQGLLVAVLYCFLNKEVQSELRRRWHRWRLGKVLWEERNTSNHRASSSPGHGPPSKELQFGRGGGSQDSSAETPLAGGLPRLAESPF
Sequence of hGLP-1R (P43220 24-463): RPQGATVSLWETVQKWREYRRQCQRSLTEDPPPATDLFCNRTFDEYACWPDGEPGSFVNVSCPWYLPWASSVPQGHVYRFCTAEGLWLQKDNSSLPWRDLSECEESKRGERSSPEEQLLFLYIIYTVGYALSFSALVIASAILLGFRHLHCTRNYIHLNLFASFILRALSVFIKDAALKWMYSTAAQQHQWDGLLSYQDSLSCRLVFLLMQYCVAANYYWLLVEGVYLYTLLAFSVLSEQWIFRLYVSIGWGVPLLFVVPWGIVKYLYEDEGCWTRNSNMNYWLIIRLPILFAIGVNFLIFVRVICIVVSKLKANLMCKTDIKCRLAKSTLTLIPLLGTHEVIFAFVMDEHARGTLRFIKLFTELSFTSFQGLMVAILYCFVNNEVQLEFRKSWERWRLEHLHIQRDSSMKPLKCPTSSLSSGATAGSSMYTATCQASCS

For `CC[C@H](C)[C@H](NC(=O)[C@H](CC(C)C)NC(=O)[C@](C)(Cc1ccc(O)cc1)NC(=O)[C@H](CCCCNC(=O)COCCOCCNC(=O)CCCCCCCNC(=O)CC[C@H](NC(=O)CCCCCCCCCOc1ccc(C(=O)O)cc1)C(=O)O)NC(=O)[C@@H](NC(=O)[C@H](Cc1ccccc1)NC(=O)[C@H](CCCN)NC(=O)C(C)(C)NC(=O)[C@H](CCC(N)=O)NC(=O)[C@H](C)NC(=O)[C@H](CCC(N)=O)NC(=O)[C@H](CCCN)NC(=O)[C@H](CC(=O)O)NC(=O)[C@H](CC(C)C)NC(=O)[C@](C)(CC(C)C)NC(=O)[C@@H](NC(=O)C(C)(C)NC(=O)[C@H](Cc1ccncc1)NC(=O)[C@H](CC(=O)O)NC(=O)[C@H](CO)NC(=O)[C@@H](NC(=O)[C@](C)(Cc1ccccc1F)NC(=O)[C@@H](NC(=O)CNC(=O)[C@H](CCC(=O)O)NC(=O)C(C)(C)NC(=O)[C@@H](N)Cc1ccc(O)cc1)[C@@H](C)O)[C@@H](C)O)[C@@H](C)CC)[C@@H](C)CC)C(=O)N[C@@H](CCCCNC(=O)COCCOCCNC(=O)CCCCCCCNC(=O)CC[C@H](NC(=O)CCCCCCCCCOc1ccc(C(=O)O)cc1)C(=O)O)C(=O)NCC(=O)NCC(=O)N1CCC[C@H]1C(=O)N[C@@H](CO)C(=O)N[C@@H](CO)C(=O)NCC(=O)N[C@@H](C)C(=O)N1CCC[C@H]1C(=O)N1CCC[C@H]1C(=O)N1CCC[C@H]1C(=O)N[C@@H](CO)C(N)=O` [Example 454], the Emax came to 91.5% on hGIPR (HEK293, read-out: hGIPR Emax, % ± SEM, cAMP, 37° C., 0.1% bovine casein and 1.0% human serum albumin, percent of maximal response to GIP(1-42)NH2); 114% at hGLP-1R (HEK293, read-out: hGLP-1R Emax, % ± SEM, cAMP, 37° C., 0.1% bovine casein, percent of maximal response to GLP-1(7-36)NH2, arithmetic mean). Further, the EC50 at hGIPR (hGIPR EC50, nM (SEM, n), cAMP, 37° C., 0.1% bovine casein (no human serum albumin)) was 0.0202 nM; at hGCGR (hGCGR EC50, nM (SEM, n), cAMP, 37° C., 0.1% bovine casein (no human serum albumin), geometric mean), more than 9950 nM; at hGCGR (hGCGR EC50, nM (SEM, n), cAMP, 37° C., 0.1% bovine casein and 1.0% human serum albumin, geometric mean (SEM, n)), more than 9950 nM; at hGLP-1R (hGLP-1R EC50, nM (SEM, n), cAMP, 0.1% bovine casein (no human serum albumin)), 0.266 nM.
Take `CC[C@H](C)[C@H](NC(=O)[C@H](CC(C)C)NC(=O)[C@](C)(Cc1ccc(O)cc1)NC(=O)[C@@H](CCC(=O)O)NC(=O)[C@@H](NC(=O)[C@H](Cc1ccccc1)NC(=O)[C@H](CCC(=O)O)NC(=O)C(C)(C)NC(=O)[C@H](CCC(N)=O)NC(=O)[C@H](C)NC(=O)[C@H](CCCCNC(=O)COCCOCCNC(=O)CC[C@H](NC(=O)CCCCCCCCCCCCC(=O)O)C(=O)O)NC(=O)[C@H](CCCN)NC(=O)[C@H](CC(=O)O)NC(=O)[C@H](CC(C)C)NC(=O)[C@](C)(CC(C)C)NC(=O)[C@@H](NC(=O)[C@H](CO)NC(=O)[C@H](Cc1ccncc1)NC(=O)[C@H](CC(=O)O)NC(=O)[C@H](CO)NC(=O)[C@@H](NC(=O)[C@](C)(Cc1ccccc1F)NC(=O)[C@@H](NC(=O)CNC(=O)[C@H](CCC(=O)O)NC(=O)C(C)(C)NC(=O)[C@@H](N)Cc1ccc(O)cc1)[C@@H](C)O)[C@@H](C)O)[C@@H](C)CC)[C@@H](C)CC)C(=O)N[C@@H](CCC(=O)O)C(=O)NCC(=O)NCC(=O)N[C@@H](CCCCNC(=O)COCCOCCNC(=O)CC[C@H](NC(=O)CCCCCCCCCCCCC(=O)O)C(=O)O)C(=O)N[C@@H](CO)C(=O)N[C@@H](CO)C(=O)NCC(=O)N[C@@H](C)C(=O)N1CCC[C@H]1C(=O)N1CCC[C@H]1C(=O)N1CCC[C@H]1C(=O)N[C@@H](CO)C(N)=O` [Example 11]: the EC50 at hGIPR (0.1% bovine casein and 1.0% human serum albumin, 37° C., read-out: hGIPR EC50, nM (SEM, n)) is 1.22 nM; on hGIPR (cAMP, incubated at 37° C., 0.1% bovine casein (no human serum albumin), read-out: hGIPR EC50, nM (SEM, n)), 0.0135 nM; on hGCGR (0.1% bovine casein and 1.0% human serum albumin, 37° C., geometric mean, read-out: hGCGR EC50, nM (SEM, n)), more than 9950 nM; on hGCGR (cAMP, incubated at 37° C., 0.1% bovine casein (no human serum albumin), geometric mean, read-out: hGCGR EC50, nM (SEM, n)) it was more than 9950 nM; at hGLP-1R (0.1% bovine casein and 1.0% human serum albumin, read-out: hGLP-1R EC50, nM (SEM, n)), 34.5 nM. Also, the Emax came to 90 ± 2.71% at hGIPR (HEK293, 0.1% bovine casein and 1.0% human serum albumin, 37° C., percent of maximal response to GIP(1-42)NH2, read-out: hGIPR Emax, % ± SEM); 97.7 ± 2.82% on hGIPR (HEK293, percent of maximal response to GIP(1-42)NH2, 37° C., 0.1% bovine casein, arithmetic mean, read-out: hGIPR Emax, % ± SEM).
